From US8299074B2, “P38 MAP kinase inhibitors” (RespiVert Ltd., priority 2008, dated 2012)
pEC50, pIC50: −log10 of the molar value. Where two headings read alike, the source gives them in different places.

What was measured:
p38 MAPKs or JNKs = conditions: Kuma, Y. (2005); cited from earlier work
U937 cells [1] = assay: LPS-induced IL-8 release in U937 cells; format: cell-based; conditions: Homo sapiens, read-out: DU937 (LPS) IL-8 IC50
How it was run: (§1)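 U937 cells differentiated with PMA (100 ng/ml) for 48 to 72 hours, pre-treated with compound for 2 hrs, then stimulated with E. coli O111:B4 LPS for 4 hrs. Supernatant TNFα and IL-8 measured by sandwich ELISA; inhibition at each concentration versus vehicle control.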

[2] = tested on: Differentiated U937 cells; assay: MTT assay (cell viability); format: cell-based, human
How it was run: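 Differentiated U937 cells pre-incubated with compound 4 h in 5% FCS or 24 h in 10% FCS; MTT read at 550 nm after DMSO solubilisation. Percentage loss of viability relative to 0.5% DMSO vehicle; apparent increases appear as negative percentages.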

THP-1 cells = assay: LPS-induced TNF alpha release in THP-1 cells; format: cell-based; conditions: Homo sapiens, THP-1, read-out: THP-1 (LPS) TNFα IC50
Procedure: LPS-Induced TNF Alpha Release in THP-1 Cells: Potency […] Coli; O111:B4, Sigma) for 4 hr and the supernatant collected for determination of TNFα concentration by sandwich ELISA (Duo-set, R&D systems). The inhibition of TNFα production was calculated at each concentration by comparison with vehicle control.

BEAS2B cells = assay: Poly I:C-induced ICAM-1 induction in BEAS2B cells; format: cell-based; conditions: Homo sapiens, BEAS-2B, read-out: BEAS2B (polyIC) ICAM1 IC50
How it was run: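 Poly I:C (1 ug/ml) transfected into BEAS2B cells after 2 h compound pre-incubation. Surface ICAM-1 measured by cell-based ELISA 18 h post-transfection (HRP, OD450–655), corrected for cell number by OD595.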

U937 cells [3] = assay: LPS-induced TNF alpha release in U937 cells; format: cell-based; conditions: Homo sapiens; read-out: DU937 (LPS) TNFα REC50
How it was run: as §1

mice = assay: LPS-induced neutrophils accumulation in mice; format: in vivo
p38 MAPK alpha (MAPK14) = molecular target: T1, p38 MAPK alpha (MAPK14) (Homo sapiens, UniProt Q16539); assay: Enzyme inhibition assay, p38 MAPK alpha (FRET, Z-LYTE, via MAPKAP-K2); format: biochemical; conditions: read-out: Enzyme p38α IC50
T1 construct: purchased Invitrogen
T1 sequence (Q16539 whole entry): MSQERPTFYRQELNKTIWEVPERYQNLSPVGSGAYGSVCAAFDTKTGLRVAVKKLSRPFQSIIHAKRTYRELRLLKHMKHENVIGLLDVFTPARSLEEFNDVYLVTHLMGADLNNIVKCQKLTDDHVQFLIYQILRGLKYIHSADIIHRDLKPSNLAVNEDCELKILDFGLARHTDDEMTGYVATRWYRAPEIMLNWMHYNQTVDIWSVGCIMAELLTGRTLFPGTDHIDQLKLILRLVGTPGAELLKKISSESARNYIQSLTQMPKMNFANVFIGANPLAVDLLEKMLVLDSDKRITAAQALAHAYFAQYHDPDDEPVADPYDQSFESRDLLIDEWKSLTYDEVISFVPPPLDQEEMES

A/J mice = assay: Cigarette smoke model; format: in vivo; conditions: 50 μg/mL (35 μl, bid) intra-nasally, cigarette smoke exposed mice
Procedure: Cigarette Smoke Model A/J mice (males, 5 weeks old) were exposed to cigarette smoke (4% cigarette smoke, diluted with compressed air) for 30 min/day for 11 days using a Tobacco Smoke Inhalation Experiment System for small animals (Model SIS-CS; Sibata Scientific Technology, Tokyo, Japan). Test substances were given intra-nasally (35 μL of solution in 50% DMSO/PBS) and therapeutically twice daily for 3 days after the final cigarette smoke exposure. Twelve hours after the last dosing, animals were anesthetized, the trachea cannulated and bronchoalveolar lavage fluid (BALF) was collected.

[4] = tested on: Dunkin-Hartley guinea-pigs; assay: Ovalbumin challenge/parainfluenza infection model; format: in vivo; conditions: nebulised 1.5 mg per day; sensitized animals treated with PIV3 medium; initial studies
[5] = Table 1, MTT, loss of cell viability at 1 μg/ml
[6] = Table 1, first MTT column, loss of cell viability at 1 μg/ml

Structure (SMILES)	pEC50 (U937 cells [3])	pIC50 (U937 cells [1]; Table 1)	pIC50 (THP-1 cells; Table 1)	pIC50 (p38 MAPK alpha (MAPK14); Table 1)	pIC50 (BEAS2B cells; Table 1)	DU937 (cell viability) MTT assay 4 h [2, 5]	DU937 (cell viability) MTT assay 4 h [2, 6]	other results
Cc1ccc(-n2nc(C(C)(C)C)cc2NC(=O)Nc2ccc(OCCN3CCOCC3)c3ccccc23)cc1 [BIRB 796]	–	–	–	–	–	–	–	phosphorylation of p38 MAPKs or JNKs by the upstream kinase MKK6 or MKK4 (p38 MAPKs or JNKs): impaired the phosphorylation of p38 MAPKs or JNKs
Cc1ccc(-n2nc(C(C)(C)C)cc2NC(=O)Nc2ccc(Oc3ccnc(NC(N)=O)n3)c3ccccc23)cc1 [Example 66, 3-(4-(4-(3-(3-tert-Butyl-1-p-tolyl-1H-pyrazol-5-yl)ureido)naphthalen-1-yloxy)pyrimidin-2-yl)urea]	> 8.00	> 8.00	> 8.00	> 5.30	> 5.30	− (<=30%)	− (<=30%)	–
Cc1ccc(-n2nc(C(C)(C)C)cc2NC(=O)Nc2ccc(Oc3ccnc(NC(=O)N(C)C)n3)c3ccccc23)cc1 [Example 68, 1,1-Dimethyl-3-(4-(4-(3-(3-tert-butyl-1-p-tolyl-1H-pyrazol-5-yl)ureido)naphthalen-1-yloxy)pyrimidin-2-yl)urea]	> 8.00	> 8.00	> 5.30	> 8.00	> 8.00	− (<=30%)	− (<=30%)	–
CCC(=O)O[C@]1(C(=O)SCF)[C@H](C)C[C@H]2[C@@H]3C[C@H](F)C4=CC(=O)C=C[C@]4(C)[C@@]3(F)[C@@H](O)C[C@@]21C [fluticasone propionate]	–	–	–	–	–	–	–	macrophage accumulation into airways (A/J mice): did not inhibit; neutrophil accumulation into airways (A/J mice): did not inhibit; ovalbumin-mediated lung function changes [4]: inhibited ovalbumin-mediated lung function changes; inhibition of LPS-induced neutrophil accumulation (mice; 50 μg/mL (35 μl, bid)): > 80%

Further lines, with some results ahead:

pEC50 (U937 cells [3])	pIC50 (U937 cells [1]; Table 1)	pIC50 (THP-1 cells; Table 1)	pIC50 (p38 MAPK alpha (MAPK14); Table 1)	Structure (SMILES)	pIC50 (BEAS2B cells; Table 1)	DU937 (cell viability) MTT assay 4 h [2, 5]	DU937 (cell viability) MTT assay 4 h [2, 6]	other results
> 8.00	–	–	–	Cc1ccc(-n2nc(C(C)(C)C)cc2NC(=O)Nc2ccc(Oc3ccnc(NC(=O)N4CCOCC4)c3)c3ccccc23)cc1 [Example 42, N-(4-(4-(3-(3-tert-Butyl-1-p-tolyl-1H-pyrazol-5-yl)ureido)naphthalen-1-yloxy)pyridin-2-yl)morpholine-4-carboxamide]	–	–	–	pIC50 (U937 cells [1]; Table 3): > 5.30; DU937 (cell viability) MTT assay 4 h ([2]; Table 3, first MTT column, loss of cell viability at 1 μg/ml): − (<=30%); DU937 (cell viability) MTT assay 4 h ([2]; Table 3, second MTT column, loss of cell viability at 1 μg/ml): − (<=30%); pIC50 (THP-1 cells; Table 3): > 8.00; pIC50 (BEAS2B cells; Table 3): > 8.00; Neutrophil numbers in BAL (mice; 0.2 mg/ml intra tracheal, 8 hr pre-dose, BALF 8 h after LPS, mean ± SEM, n = 8): 8.60 ± 1.59 ×10^5/mL; pIC50 (p38 MAPK alpha (MAPK14); Table 3): > 5.30
> 8.00	> 8.00	> 8.00	> 8.00	COCC(=O)Nc1cc(Oc2ccc(NC(=O)Nc3cc(C(C)(C)C)nn3-c3ccc(C)cc3)c3ccccc23)ncn1 [Example 63, N-(6-(4-(3-(3-tert-Butyl-1-p-tolyl-1H-pyrazol-5-yl)ureido)naphthalen-1-yloxy)pyrimidin-4-yl)-2-methoxyacetamide]	> 5.30	–	–	DU937 (cell viability) MTT assay 4 h ([2]; Table 1, MTT, loss of cell viability, test conducted at 10 μg/ml): +^$ (>30%); DU937 (cell viability) MTT assay 4 h ([2]; Table 1, first MTT column, loss of cell viability, test conducted at 10 μg/ml): −^$ (<=30%)
> 8.00	> 5.30	> 8.00	> 5.30	COCC(=O)Nc1nccc(Oc2ccc(NC(=O)Nc3cc(C(C)(C)C)nn3-c3ccc(C)cc3)c3ccccc23)n1 [Example 65, N-(4-(4-(3-(3-tert-Butyl-1-p-tolyl-1H-pyrazol-5-yl)ureido)naphthalen-1-yloxy)pyrimidin-2-yl)-2-methoxyacetamide]	> 5.30	− (<=30%)	− (<=30%)	–
> 8.00	> 8.00	> 8.00	> 5.30	CNC(=O)Nc1nccc(Oc2ccc(NC(=O)Nc3cc(C(C)(C)C)nn3-c3ccc(C)cc3)c3ccccc23)n1 [Example 67, 1-Methyl-3-(4-(4-(3-(3-tert-butyl-1-p-tolyl-1H-pyrazol-5-yl)ureido)naphthalen-1-yloxy)pyrimidin-2-yl)urea]	> 5.30	− (<=30%)	− (<=30%)	–
